Measured values as given in ChEMBL document CHEMBL1145395, “De novo design of selective antibiotic peptides by incorporation of unnatural amino acids” (J Med Chem, 2007).
Values after ≈ are worked out from the molar mass of the structure shown. Values belong to the compound of their own block, whether it stands above or below them. Active and inactive are the calls of the source. No cut-off for these calls is given here. Non-standard residues stand in square brackets, D forms with d. Residues, ends and D or L forms follow the SMILES beside them. ξ: configuration not given here. Pro(3ξ,4ξ-(CH2)4) = O=C(O)[C@H]1NCC2CCCCC21; Pro(3,4-benzo) = O=C(O)[C@H]1NCc2ccccc21; Tic = O=C(O)[C@@H]1Cc2ccccc2CN1; Orn = NCCC[C@H](N)C(=O)O; βAla = NCCC(=O)O

What was measured:
Format in all cases: functional
Staphylococcus aureus = assay: Antibacterial activity against methicillin/gentamicin/tetracycline resistant Staphylococcus aureus ATCC 33592
Salmonella typhimurium = assay: Antibacterial activity against Salmonella Typhimurium ATCC 13311; conditions: for Activity: Salmonella enterica subsp. enterica serovar Typhimurium; for MIC: Salmonella enterica
Mycobacterium = assay: Antibacterial activity against Mycobacterium ranae ATCC 110

Compound: CSCC[C@H](NC(=O)[C@H](CC(C)C)NC(=O)[C@H](CCC(=O)O)NC(=O)[C@@H]1CCCN1C(=O)[C@H](Cc1ccccc1)NC(=O)[C@H](CCCCN)NC(=O)CNC(=O)[C@H](CC(C)C)NC(=O)CNC(=O)[C@H](Cc1ccccc1)NC(=O)[C@H](CCC(=O)O)NC(=O)[C@H](CCCCN)NC(=O)CNC(=O)[C@H](CC(C)C)NC(=O)CNC(=O)[C@@H]1CCCN1C(=O)[C@H](Cc1ccccc1)NC(=O)[C@H](CCSC)NC(=O)[C@H](CCCCN)NC(=O)CNC(C)=O)C(=O)NCC(=O)N[C@@H](CCC(=O)O)C(=O)N[C@@H](CCCNC(=N)N)C(N)=O (Ac-GKMFPGLGKEFGLGKFPELMGER-NH2)
Activity (Staphylococcus aureus): inactive
Activity (Salmonella typhimurium): inactive

Compound: CC(C)C[C@H](NC(=O)CNC(=O)[C@H](CCCCN)NC(=O)CN)C(=O)N1Cc2ccccc2C[C@H]1C(=O)N1CC2CCCCC2[C@H]1C(=O)NCC(=O)N[C@@H](CCCNC(=N)N)C(=O)N1Cc2ccccc2C[C@H]1C(=O)N1CC2CCCCC2[C@H]1C(=O)NCC(=O)N[C@@H](Cc1ccccc1)C(=O)N1Cc2ccccc2C[C@H]1C(=O)N1CC2CCCCC2[C@H]1C(=O)NCC(=O)N[C@@H](CCCNC(=N)N)C(=O)N1Cc2ccccc2C[C@H]1C(=O)N1CC2CCCCC2[C@H]1C(=O)NCC(=O)N[C@@H](Cc1ccccc1)C(=O)N1Cc2ccccc2C[C@H]1C(=O)N1CC2CCCCC2[C@H]1C(=O)NCC(=O)N[C@@H](CCCNC(=N)N)C(=O)N1Cc2ccccc2C[C@H]1C(=O)N1CC2CCCCC2[C@H]1C(=O)NCC(=O)N[C@@H](CCCCN)C(=O)N[C@@H](CCCNC(=N)N)C(N)=O (stereo not given in full) (H-GKGL[Tic][Pro(3ξ,4ξ-(CH2)4)]GR[Tic][Pro(3ξ,4ξ-(CH2)4)]GF[Tic][Pro(3ξ,4ξ-(CH2)4)]GR[Tic][Pro(3ξ,4ξ-(CH2)4)]GF[Tic][Pro(3ξ,4ξ-(CH2)4)]GR[Tic][Pro(3ξ,4ξ-(CH2)4)]GKR-NH2)
Activity (Mycobacterium): inactive

Compound: CSCC[C@H](NC(=O)[C@H](CC(C)C)NC(=O)[C@H](CCC(=O)O)NC(=O)[C@@H]1CCCN1C(=O)[C@@H]1C2CCCCC2CN1C(=O)[C@H](CCCCN)NC(=O)CNC(=O)[C@H](CC(C)C)NC(=O)CNC(=O)[C@@H]1CCCN1C(=O)[C@@H]1C2CCCCC2CN1C(=O)[C@H](CCCCN)NC(=O)CNC(=O)[C@H](CC(C)C)NC(=O)CNC(=O)[C@@H]1CCCN1C(=O)[C@@H]1C2CCCCC2CN1C(=O)[C@H](CCSC)NC(=O)[C@H](CCCCN)NC(=O)CN)C(=O)NCC(=O)N[C@@H](CCCNC(=N)N)C(N)=O (stereo not given in full) (H-GKM[Pro(3ξ,4ξ-(CH2)4)]PGLGK[Pro(3ξ,4ξ-(CH2)4)]PGLGK[Pro(3ξ,4ξ-(CH2)4)]PELMGR-NH2)
Activity (Staphylococcus aureus): inactive
Activity (Salmonella typhimurium): inactive

MIC (Salmonella typhimurium): 30 µM (≈ 72.3 µg/mL)
Compound: CC[C@H](C)[C@H](NC(=O)CN)C(=O)NCC(=O)N[C@@H](CCCCN)C(=O)N[C@@H](Cc1ccccc1)C(=O)N[C@@H](CC(C)C)C(=O)N[C@@H](Cc1cnc[nH]1)C(=O)N[C@@H](CO)C(=O)N[C@@H](C)C(=O)NCC(=O)N[C@@H](CCCCN)C(=O)N[C@@H](Cc1ccccc1)C(=O)NCC(=O)N[C@@H](CCCCN)C(=O)N[C@@H](C)C(=O)N[C@@H](Cc1ccccc1)C(=O)N[C@H](C(=O)NCC(=O)N[C@@H](CCC(=O)O)C(=O)N[C@H](C(=O)N[C@@H](CCSC)C(=O)N[C@@H](CCCCN)C(=O)N[C@@H](CO)C(N)=O)[C@@H](C)CC)C(C)C [MAGAININ 1]

Compound: CSCC[C@H](NC(=O)[C@H](CC(C)C)NC(=O)[C@H](CCC(=O)O)NC(=O)[C@@H]1Cc2ccccc2CN1C(=O)[C@H](CCCCN)NC(=O)CNC(=O)[C@H](CC(C)C)NC(=O)CNC(=O)[C@@H]1Cc2ccccc2CN1C(=O)[C@H](CCCCN)NC(=O)CNC(=O)[C@H](CC(C)C)NC(=O)CNC(=O)[C@@H]1Cc2ccccc2CN1C(=O)[C@H](CCSC)NC(=O)[C@H](CCCCN)NC(=O)CN)C(=O)NCC(=O)N[C@@H](CCCNC(=N)N)C(N)=O (H-GKM[Tic]GLGK[Tic]GLGK[Tic]ELMGR-NH2)
Activity (Staphylococcus aureus): inactive
Activity (Salmonella typhimurium): inactive

Compound: CC(C)C[C@H](NC(=O)CNC(=O)[C@H](CCCCN)NC(=O)CN)C(=O)N1Cc2ccccc2C[C@H]1C(=O)N1CC2CCCCC2[C@H]1C(=O)NCC(=O)N[C@@H](CCCN)C(=O)N1Cc2ccccc2C[C@H]1C(=O)N1CC2CCCCC2[C@H]1C(=O)NCC(=O)N[C@@H](Cc1ccccc1)C(=O)N1Cc2ccccc2C[C@H]1C(=O)N1CC2CCCCC2[C@H]1C(=O)NCC(=O)N[C@@H](CCCCN)C(=O)N1Cc2ccccc2C[C@H]1C(=O)N1CC2CCCCC2[C@H]1C(=O)NCC(=O)N[C@@H](Cc1ccccc1)C(=O)N1Cc2ccccc2C[C@H]1C(=O)N1CC2CCCCC2[C@H]1C(=O)NCC(=O)N[C@@H](CCCCN)C(=O)N1Cc2ccccc2C[C@H]1C(=O)N1CC2CCCCC2[C@H]1C(=O)NCC(=O)N[C@@H](CCCCN)C(=O)N[C@@H](CCCNC(=N)N)C(N)=O (stereo not given in full) (H-GKGL[Tic][Pro(3ξ,4ξ-(CH2)4)]G[Orn][Tic][Pro(3ξ,4ξ-(CH2)4)]GF[Tic][Pro(3ξ,4ξ-(CH2)4)]GK[Tic][Pro(3ξ,4ξ-(CH2)4)]GF[Tic][Pro(3ξ,4ξ-(CH2)4)]GK[Tic][Pro(3ξ,4ξ-(CH2)4)]GKR-NH2)
Activity (Salmonella typhimurium): inactive

Compound: CSCC[C@H](NC(=O)[C@H](CC(C)C)NC(=O)[C@H](CCC(=O)O)NC(=O)[C@@H]1CCCN1C(=O)[C@@H]1Cc2ccccc2CN1C(=O)[C@H](CCCCN)NC(=O)CNC(=O)[C@H](CC(C)C)NC(=O)CNC(=O)[C@@H]1C2CCCCC2CN1C(=O)[C@@H]1Cc2ccccc2CN1C(=O)[C@H](CCC(=O)O)NC(=O)[C@H](CCCCN)NC(=O)CNC(=O)[C@H](CC(C)C)NC(=O)CNC(=O)[C@@H]1C2CCCCC2CN1C(=O)[C@@H]1Cc2ccccc2CN1C(=O)[C@H](CCCCN)NC(=O)CNC(C)=O)C(=O)NCC(=O)N[C@@H](CCC(=O)O)C(=O)N[C@@H](CCCNC(=N)N)C(N)=O (stereo not given in full) (Ac-GK[Tic][Pro(3ξ,4ξ-(CH2)4)]GLGKE[Tic][Pro(3ξ,4ξ-(CH2)4)]GLGK[Tic]PELMGER-NH2)
Activity (Staphylococcus aureus): inactive
Activity (Salmonella typhimurium): inactive

Compound: CSCC[C@H](NC(=O)[C@H](CC(C)C)NC(=O)[C@H](CCC(=O)O)NC(=O)[C@@H]1CCCN1C(=O)[C@H](Cc1ccccc1)NC(=O)[C@H](CCCCN)NC(=O)CNC(=O)[C@H](CC(C)C)NC(=O)CNC(=O)[C@@H]1CCCN1C(=O)[C@H](Cc1ccccc1)NC(=O)[C@H](CCCCN)NC(=O)CNC(=O)[C@H](CC(C)C)NC(=O)CNC(=O)[C@@H]1CCCN1C(=O)[C@H](Cc1ccccc1)NC(=O)[C@H](CCSC)NC(=O)[C@H](CCCCN)NC(=O)CN)C(=O)NCC(=O)N[C@@H](CCCNC(=N)N)C(N)=O (H-GKMFPGLGKFPGLGKFPELMGR-NH2)
Activity (Staphylococcus aureus): inactive
Activity (Salmonella typhimurium): inactive

Compound: CSCC[C@H](NC(=O)[C@H](CC(C)C)NC(=O)[C@H](CCC(=O)O)NC(=O)[C@@H]1CCCN1C(=O)[C@@H]1Cc2ccccc2CN1C(=O)[C@H](CCCCN)NC(=O)CNC(=O)[C@H](CC(C)C)NC(=O)CNC(=O)[C@@H]1CCCN1C(=O)[C@@H]1Cc2ccccc2CN1C(=O)[C@H](CCCCN)NC(=O)CNC(=O)[C@H](CC(C)C)NC(=O)CNC(=O)[C@@H]1CCCN1C(=O)[C@@H]1Cc2ccccc2CN1C(=O)[C@H](CCSC)NC(=O)[C@H](CCCCN)NC(=O)CN)C(=O)NCC(=O)N[C@@H](CCCNC(=N)N)C(N)=O (H-GKM[Tic]PGLGK[Tic]PGLGK[Tic]PELMGR-NH2)
Activity (Staphylococcus aureus): inactive
Activity (Salmonella typhimurium): inactive

Compound: CC(C)C[C@H](NC(=O)CNC(=O)[C@H](CCCCN)NC(=O)CN)C(=O)N1Cc2ccccc2C[C@H]1C(=O)N1CC2CCCCC2[C@H]1C(=O)NCC(=O)N[C@@H](CCCCN)C(=O)N1Cc2ccccc2C[C@H]1C(=O)N1CC2CCCCC2[C@H]1C(=O)NCC(=O)N[C@@H](Cc1ccccc1)C(=O)N1Cc2ccccc2C[C@H]1C(=O)N1CC2CCCCC2[C@H]1C(=O)NCC(=O)N[C@@H](CCCCN)C(=O)N1Cc2ccccc2C[C@H]1C(=O)N1CC2CCCCC2[C@H]1C(=O)NCC(=O)N[C@@H](Cc1ccccc1)C(=O)N1Cc2ccccc2C[C@H]1C(=O)N1CC2CCCCC2[C@H]1C(=O)NCC(=O)N[C@@H](CCCCN)C(=O)N1Cc2ccccc2C[C@H]1C(=O)N1CC2CCCCC2[C@H]1C(=O)NCC(=O)N[C@@H](CCCCN)C(=O)N[C@@H](CCCNC(=N)N)C(N)=O (stereo not given in full) (H-GKGL[Tic][Pro(3ξ,4ξ-(CH2)4)]GK[Tic][Pro(3ξ,4ξ-(CH2)4)]GF[Tic][Pro(3ξ,4ξ-(CH2)4)]GK[Tic][Pro(3ξ,4ξ-(CH2)4)]GF[Tic][Pro(3ξ,4ξ-(CH2)4)]GK[Tic][Pro(3ξ,4ξ-(CH2)4)]GKR-NH2)
MIC (Staphylococcus aureus): 10 µM (≈ 35.4 µg/mL)

Compound: CC(C)C[C@H](NC(=O)CNC(=O)[C@H](CCCCN)NC(=O)CN)C(=O)N1Cc2ccccc2C[C@H]1C(=O)N1CC2CCCCC2[C@H]1C(=O)NCC(=O)N[C@@H](CCCCN)C(=O)N1Cc2ccccc2C[C@H]1C(=O)N1CC2CCCCC2[C@H]1C(=O)NCC(=O)N[C@@H](CC(C)C)C(=O)N1Cc2ccccc2C[C@H]1C(=O)N1CC2CCCCC2[C@H]1C(=O)NCC(=O)N[C@@H](CCCCN)C(=O)N1Cc2ccccc2C[C@H]1C(=O)N1CC2CCCCC2[C@H]1C(=O)NCC(=O)N[C@@H](CC(C)C)C(=O)N1Cc2ccccc2C[C@H]1C(=O)N1CC2CCCCC2[C@H]1C(=O)NCC(=O)N[C@@H](CCCCN)C(=O)N1Cc2ccccc2C[C@H]1C(=O)N1CC2CCCCC2[C@H]1C(=O)NCC(=O)N[C@@H](CCCCN)C(=O)N[C@@H](CCCNC(=N)N)C(N)=O (stereo not given in full) (H-GKGL[Tic][Pro(3ξ,4ξ-(CH2)4)]GK[Tic][Pro(3ξ,4ξ-(CH2)4)]GL[Tic][Pro(3ξ,4ξ-(CH2)4)]GK[Tic][Pro(3ξ,4ξ-(CH2)4)]GL[Tic][Pro(3ξ,4ξ-(CH2)4)]GK[Tic][Pro(3ξ,4ξ-(CH2)4)]GKR-NH2)
MIC (Staphylococcus aureus): 10 µM (≈ 34.7 µg/mL)
MIC (Salmonella typhimurium): 100 µM (≈ 347 µg/mL)

Compound: CSCC[C@H](NC(=O)[C@H](CC(C)C)NC(=O)[C@H](CCC(=O)O)NC(=O)[C@@H]1c2ccccc2CN1C(=O)[C@@H]1Cc2ccccc2CN1C(=O)[C@H](Cc1ccccc1)NC(=O)CCNC(=O)[C@@H]1c2ccccc2CN1C(=O)[C@@H]1Cc2ccccc2CN1C(=O)[C@H](CCCCN)NC(=O)CCNC(=O)[C@@H]1c2ccccc2CN1C(=O)[C@@H]1Cc2ccccc2CN1C(=O)[C@H](Cc1ccccc1)NC(=O)CCNC(=O)[C@@H]1c2ccccc2CN1C(=O)[C@@H]1Cc2ccccc2CN1C(=O)[C@H](CCCCN)NC(=O)CCNC(=O)[C@@H]1c2ccccc2CN1C(=O)[C@@H]1Cc2ccccc2CN1C(=O)[C@H](CC(C)C)NC(=O)CNC(=O)[C@H](CCCCN)NC(=O)CN)C(=O)N[C@@H](CC(N)=O)C(=O)N[C@@H](CO)C(N)=O (H-GKGL[Tic][Pro(3,4-benzo)][βAla]K[Tic][Pro(3,4-benzo)][βAla]F[Tic][Pro(3,4-benzo)][βAla]K[Tic][Pro(3,4-benzo)][βAla]F[Tic][Pro(3,4-benzo)]ELMNS-NH2)
Activity (Staphylococcus aureus): inactive
Activity (Salmonella typhimurium): inactive
